Source: patent US20250051375A1, “ANTI-HIV COMPOUNDS” (Gilead Sciences, Inc., priority 2023, published 2025)
Values after ≈ are worked out from the molar mass of the structure shown. Like-named read-outs stand apart in the source and are kept apart here.

Legend:
[1] = Solubility in FaSSIF; details: for solubility at 2 h: 23 °C, pH 6.5, fassif, thermodynamic from solid
How it was run: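 Concentration measured by HPLC-UV after solid compound was dosed at 5 mg/mL into pH 6.5 fasted-state simulated intestinal fluid containing taurocholate and lecithin (4:1 molar) and vortexed.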

[2] = target: bovine intestinal alkaline phosphatase (Bos taurus (Bovine), UniProt P19111); assay: BiALP: conversion by bovine intestinal alkaline phosphatase; format: in vitro ADME; details: 2 μM substrate, 100 ng/mL iALP, Tris pH 7.8, 37° C., 60 minutes; for [Intermediate A] or [Amprenavir]: parent formed
bovine intestinal alkaline phosphatase, sequence (P19111 20-506): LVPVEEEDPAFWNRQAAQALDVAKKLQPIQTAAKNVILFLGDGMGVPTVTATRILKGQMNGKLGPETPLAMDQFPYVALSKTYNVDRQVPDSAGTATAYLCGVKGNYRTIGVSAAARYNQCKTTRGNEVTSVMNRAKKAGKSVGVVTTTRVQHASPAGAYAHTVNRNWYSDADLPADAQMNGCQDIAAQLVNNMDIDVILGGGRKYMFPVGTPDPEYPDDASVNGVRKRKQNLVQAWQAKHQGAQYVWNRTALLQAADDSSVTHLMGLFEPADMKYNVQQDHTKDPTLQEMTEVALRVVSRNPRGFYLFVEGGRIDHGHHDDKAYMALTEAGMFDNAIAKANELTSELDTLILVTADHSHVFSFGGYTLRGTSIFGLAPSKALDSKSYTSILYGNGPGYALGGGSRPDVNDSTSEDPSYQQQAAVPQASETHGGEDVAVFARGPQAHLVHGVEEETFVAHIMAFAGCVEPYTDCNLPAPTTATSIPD
How it was run: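 Compounds at 2 μM final were incubated 60 min at 37° C in 0.1 M Tris-HCl pH 7.8 with 1 mM MgCl2 and 1 mM ZnCl2, with or without 100 ng/mL iALP (0.01 units/mL). Samples were quenched with acetonitrile/formic acid containing labetalol. Conversion was quantified by LC-MS peak area ratios against a 2 μM product standard.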

[3] = system: HIV-1 IIIB strain; assay: MT-4 HIV Wild Type Virus Infection Assay (IIIB Virus); format: cell-based; details: MT-4 cells acutely infected with HIV-1 IIIB, 5 day incubation, Cell-titer glo
How it was run: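 MT-4 cells at 2×10^6 cells/ml in RPMI/10% FBS were acutely infected with HIV-1 IIIB for 1 h at 37° C, diluted 25× and added to serially diluted compounds. After 5 days at 37° C, viability read by CellTiter-Glo luminescence; EC50 from dose-response curves.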

[4] = PBS Stability Assay; format: physicochemical; details: phosphate buffered saline pH 7.4; for half-life at 2 μM: buffer, pH 7.4, 2 μM, read-out: PBS T½
How it was run: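 Test compound at 2 μM final was incubated in PBS, pH 7.4, and sampled at 0, 10, 20, 30, 60 and 120 min into acetonitrile/1% formic acid quench with labetalol internal standard. Remaining compound was quantified by LC-MS peak-area ratio, and half-life came from a first-order exponential fit.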

[5] = Human immunodeficiency virus 1, IIIB, MT4, 120 h

| SMILES | solubility at 2 h [1] | [Compound] [2] | biALP Intermediate A or [Amprenavir] (% of total) [2] | [Intermediate A] or [Amprenavir] [2] | EC50 [3, 5] | half-life at 2 μM [4] | FaSSIF (pH 6.5) solubility ([1]; FaSSIF pH 6.5, dose 5 mg/mL, 2-hour incubation, ambient temperature) | EC50 ([3]; read-out: EC50) | PBS T½ ([4]; 2 μM) |
| --- | --- | --- | --- | --- | --- | --- | --- | --- | --- |
| COC(=O)N[C@H](C(=O)N[C@@H](Cc1ccc(C#Cc2cnc(N3CC4CCC(C3)N4C3COC3)nc2)cc1)[C@H](CN(Cc1c(F)cc(-c2ccn(C(F)F)n2)cc1F)NC(=O)[C@@H](NC(=O)OC)C(C)(C)C(F)(F)F)OC(=O)CC(C)(C)c1c(CC(=O)NCc2ccc(C(F)F)cc2)cc(C)cc1OP(=O)(O)O)C(C)(C)C(F)(F)F [Example 50, (5S,10S,11S,14S)-8-(4-(1-(difluoromethyl)-1H-pyrazol-3-yl)-2,6-difluorobenzyl)-11-(4-((2-(8-(oxetan-3-yl)-3,8-diazabicyclo[3.2.1]octan-3-yl)pyrimidin-5-yl)ethynyl)benzyl)-3,6,13,16-tetraoxo-5,14-bis(1,1,1-trifluoro-2-methylpropan-2-yl)-2,17-dioxa-4,7,8,12,15-pentaazaoctadecan-10-yl 3-(2-(2-((4-(difluoromethyl)benzyl)amino)-2-oxoethyl)-4-methyl-6-(phosphonooxy)phenyl)-3-methylbutanoate] | < 1000 µg/mL | 2228.1 nM | 0 % of total | 0.3 nM | 1720 nM | 8.26 h | – | – | – |
| COC(=O)N[C@H](C(=O)N[C@@H](Cc1ccc(C#Cc2cnc(N3CC4CCC(C3)N4C3COC3)nc2)cc1)[C@H](CN(Cc1c(F)cc(-c2ccn(C(F)F)n2)cc1F)NC(=O)[C@@H](NC(=O)OC)C(C)(C)C(F)(F)F)OC(=O)O[C@H](C)OC(=O)CC(C)(C)c1c(CC(=O)O)cc(C)cc1OP(=O)(O)O)C(C)(C)C(F)(F)F [Example 65] | – | 1224.6 nM | – | – | – | – | 1310 μg/mL | 12.6 nM | 11.15 h |
| COC(=O)N[C@H](C(=O)N[C@@H](Cc1ccc(C#Cc2cnc(N3CC4CCC(C3)N4C3COC3)nc2)cc1)[C@H](CN(Cc1c(F)cc(-c2ccn(C(F)F)n2)cc1F)NC(=O)[C@@H](NC(=O)OC)C(C)(C)C(F)(F)F)OC(=O)CC(C)(C)c1c(CC(=O)N2CC(C(=O)O)CC(C(=O)O)C2)cc(C)cc1OP(=O)(O)O)C(C)(C)C(F)(F)F (stereo partly drawn) [Example 67] | 3160 µg/mL (≈ 1930 µM) | 1747.2 nM | 9.1 % of total | 175.4 nM | 205 nM | 4.32 h | – | – | – |
| COC(=O)N[C@H](C(=O)N[C@@H](Cc1ccc(C#Cc2cnc(N3CC4CCC(C3)N4C3COC3)nc2)cc1)[C@H](CN(Cc1c(F)cc(-c2ccn(C(F)F)n2)cc1F)NC(=O)[C@@H](NC(=O)OC)C(C)(C)C(F)(F)F)OC(=O)OCOC(=O)CC(C)(C)c1c(CC(=O)N[C@@H](CC(=O)O)C(=O)O)cc(C)cc1OP(=O)(O)O)C(C)(C)C(F)(F)F [Example 68] | 4440 µg/mL (≈ 2650 µM) | 1478.2 nM | – | – | 5.9 nM | 6.27 h | – | – | – |
| COC(=O)N[C@H](C(=O)N[C@@H](Cc1ccc(C#Cc2cnc(N3CC4CCC(C3)N4C3COC3)nc2)cc1)[C@H](CN(Cc1c(F)cc(-c2ccn(C(F)F)n2)cc1F)NC(=O)[C@@H](NC(=O)OC)C(C)(C)C(F)(F)F)OC(=O)OCOC(=O)CC(C)(C)c1c(CC(=O)NCP(=O)(O)O)cc(C)cc1OP(=O)(O)O)C(C)(C)C(F)(F)F [Example 69] | 4950 µg/mL (≈ 3000 µM) | 1578.5 nM | – | – | 3.5 nM | 13.1 h | – | – | – |
| COC(=O)N[C@H](C(=O)N[C@@H](Cc1ccc(C#Cc2cnc(N3CC4CCC(C3)N4C3COC3)nc2)cc1)[C@H](CN(Cc1c(F)cc(-c2ccn(C(F)F)n2)cc1F)NC(=O)[C@@H](NC(=O)OC)C(C)(C)C(F)(F)F)OC(=O)OCOC(=O)CC(C)(C)c1c(CC(=O)N[C@@H](CCC(=O)O)C(=O)O)cc(C)cc1OP(=O)(O)O)C(C)(C)C(F)(F)F [Example 70] | 5570 µg/mL (≈ 3300 µM) | 1164.8 nM | – | – | 6.6 nM | 5.27 h | – | – | – |
| COC(=O)N[C@H](C(=O)N[C@@H](Cc1ccc(C#Cc2cnc(N3CC4CCC(C3)N4C3COC3)nc2)cc1)[C@H](CN(Cc1c(F)cc(-c2ccn(C(F)F)n2)cc1F)NC(=O)[C@@H](NC(=O)OC)C(C)(C)C(F)(F)F)OC(=O)OCOC(=O)CC(C)(C)c1c(CC(=O)NCC(=O)O)cc(C)cc1OP(=O)(O)O)C(C)(C)C(F)(F)F [Example 71] | 4420 µg/mL (≈ 2740 µM) | 1036.2 nM | – | – | 3.9 nM | 7.86 h | – | – | – |
| COC(=O)N[C@H](C(=O)N[C@@H](Cc1ccc(C#Cc2cnc(N3CC4CCC(C3)N4C3COC3)nc2)cc1)[C@H](CN(Cc1c(F)cc(-c2ccn(C(F)F)n2)cc1F)NC(=O)[C@@H](NC(=O)OC)C(C)(C)C(F)(F)F)OC(=O)OCOC(=O)CC(C)(C)c1c(CC(=O)N[C@@H](CC(N)=O)C(=O)O)cc(C)cc1OP(=O)(O)O)C(C)(C)C(F)(F)F [Example 72] | 4980 µg/mL (≈ 2980 µM) | 827.8 nM | – | – | 5.4 nM | 6.12 h | – | – | – |
| COC(=O)N[C@H](C(=O)N[C@@H](Cc1ccc(C#Cc2cnc(N3CC4CCC(C3)N4C3COC3)nc2)cc1)[C@H](CN(Cc1c(F)cc(-c2ccn(C(F)F)n2)cc1F)NC(=O)[C@@H](NC(=O)OC)C(C)(C)C(F)(F)F)OC(=O)OCOC(=O)CC(C)(C)c1c(CC(=O)NC(C)(C)CCC(=O)O)cc(C)cc1OP(=O)(O)O)C(C)(C)C(F)(F)F [Example 73] | 145 µg/mL (≈ 86.7 µM) | 1660.4 nM | – | – | 4.6 nM | 6.36 h | – | – | – |
| COC(=O)N[C@H](C(=O)N[C@@H](Cc1ccc(C#Cc2cnc(N3CC4CCC(C3)N4C3COC3)nc2)cc1)[C@H](CN(Cc1c(F)cc(-c2ccn(C(F)F)n2)cc1F)NC(=O)[C@@H](NC(=O)OC)C(C)(C)C(F)(F)F)OC(=O)OCOC(=O)CC(C)(C)c1c(CC(=O)N2CC[C@H](C(=O)O)C2)cc(C)cc1OP(=O)(O)O)C(C)(C)C(F)(F)F [Example 75] | 4170 µg/mL (≈ 2520 µM) | 1420.1 nM | – | – | 8.1 nM | 4.77 h | – | – | – |
| COC(=O)N[C@H](C(=O)N[C@@H](Cc1ccc(C#Cc2cnc(N3CC4CCC(C3)N4C3COC3)nc2)cc1)[C@H](CN(Cc1c(F)cc(-c2ccn(C(F)F)n2)cc1F)NC(=O)[C@@H](NC(=O)OC)C(C)(C)C(F)(F)F)OC(=O)CC(C)(C)c1c(CC(=O)N2CCN(CC(=O)O)CC2)cc(C)cc1OP(=O)(O)O)C(C)(C)C(F)(F)F [Example 82] | < 1000 µg/mL | 1224.3 nM | – | – | 335 nM | 6.71 h | – | – | – |
| COC(=O)N[C@H](C(=O)N[C@@H](Cc1ccc(C#Cc2cnc(N3CC4CCC(C3)N4C3COC3)nc2)cc1)[C@H](CN(Cc1c(F)cc(-c2ccn(C(F)F)n2)cc1F)NC(=O)[C@@H](NC(=O)OC)C(C)(C)C(F)(F)F)OC(=O)OCOC(=O)CC(C)(C)c1c(CC(=O)N2CCN(S(N)(=O)=O)CC2)cc(C)cc1OP(=O)(O)O)C(C)(C)C(F)(F)F [Example 85] | < 1000 µg/mL | 1466.1 nM | – | – | 2.4 nM | 2.27 h | – | – | – |
| COC(=O)N[C@H](C(=O)N[C@@H](Cc1ccc(C#Cc2cnc(N3CC4CCC(C3)N4C3COC3)nc2)cc1)[C@H](CN(Cc1c(F)cc(-c2ccn(C(F)F)n2)cc1F)NC(=O)[C@@H](NC(=O)OC)C(C)(C)C(F)(F)F)OC(=O)OCOC(=O)CC(C)(C)c1c(CC(=O)N2CCN(S(=O)(=O)N(C)C)CC2)cc(C)cc1OP(=O)(O)O)C(C)(C)C(F)(F)F [Example 86] | < 1000 µg/mL | 1890 nM | 5.6 % of total | 112.9 nM | 4.1 nM | 2.59 h | – | – | – |
| COC(=O)N[C@H](C(=O)N[C@@H](Cc1ccc(C#Cc2cnc(N3CC4CCC(C3)N4C3COC3)nc2)cc1)[C@H](CN(Cc1c(F)cc(-c2ccn(C(F)F)n2)cc1F)NC(=O)[C@@H](NC(=O)OC)C(C)(C)C(F)(F)F)OC(=O)OCOC(=O)CC(C)(C)c1c(CC(=O)N[C@@H](CCC(N)=O)C(=O)O)cc(C)cc1OP(=O)(O)O)C(C)(C)C(F)(F)F [Example 87] | 4500 µg/mL (≈ 2670 µM) | 1161.5 nM | – | – | 3.6 nM | 5.41 h | – | – | – |
| COC(=O)N[C@H](C(=O)N[C@@H](Cc1ccc(C#Cc2cnc(N3CC4CCC(C3)N4C3COC3)nc2)cc1)[C@H](CN(Cc1c(F)cc(-c2ccn(C(F)F)n2)cc1F)NC(=O)[C@@H](NC(=O)OC)C(C)(C)C(F)(F)F)OC(=O)CC(C)(C)c1c(CC(=O)N[C@@H](CCC(N)=O)C(=O)O)cc(C)cc1OP(=O)(O)O)C(C)(C)C(F)(F)F [Example 88] | 4640 µg/mL (≈ 2880 µM) | 1726.6 nM | 6 % of total | 109.8 nM | 42.8 nM | 6.16 h | – | – | – |
| COC(=O)N[C@H](C(=O)N[C@@H](Cc1ccc(C#Cc2cnc(N3CC4CCC(C3)N4C3COC3)nc2)cc1)[C@H](CN(Cc1c(F)cc(-c2ccn(C(F)F)n2)cc1F)NC(=O)[C@@H](NC(=O)OC)C(C)(C)C(F)(F)F)OC(=O)CC(C)(C)c1c(CC(=O)N[C@@H](CC(N)=O)C(=O)O)cc(C)cc1OP(=O)(O)O)C(C)(C)C(F)(F)F [Example 89] | 2390 µg/mL (≈ 1500 µM) | 1704.6 nM | – | – | 115 nM | 5.29 h | – | – | – |
